Source: ChEMBL document CHEMBL5365523, “Design of a structure-activity relationship model of vitamin K epoxide reductase (VKORC1) inhibitors combining chemical synthesis of new compounds, enzymatic assays and molecular modelling” (Bioorg Med Chem, 2023)

Assays:
[1] = molecular target: Vitamin K epoxide reductase complex subunit 1 (Homo sapiens, UniProt Q9BQB6); test: Inhibition of recombinant human wild-type VKORC1 expressed in Pichia pastoris membrane incubated for 30 mins in presence of presence of dithiothreitol by LC-APCI/MS/MS analysis; type: cell membranes
Vitamin K epoxide reductase complex subunit 1, sequence (Q9BQB6 whole entry, one chain of several): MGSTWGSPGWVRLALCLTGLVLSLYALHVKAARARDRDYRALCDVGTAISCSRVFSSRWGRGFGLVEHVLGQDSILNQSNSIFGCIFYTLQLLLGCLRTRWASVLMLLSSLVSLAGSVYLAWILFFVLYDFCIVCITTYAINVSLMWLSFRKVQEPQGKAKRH

[2] = Metabolic stability in rat hepatocytes assessed as half life; type: ADME, cell-based, Hepatocyte

Row | IC50 [1] [nM] | SMILES | half-life [2] [days]
1 | 2720 | COc1ccc(Cc2c(O)c3ccccc3oc2=O)cc1 | –
2 | 498 | O=c1oc2ccccc2c(O)c1Cc1ccc(C(F)(F)F)cc1 | –
3 | 5530 | COc1cccc(Cc2c(O)c3ccccc3oc2=O)c1 | –
4 | 23900 | O=c1oc2ccccc2c(O)c1Cc1cccnc1 | –
5 | 527 | CSc1ccc(Cc2c(O)c3ccccc3oc2=O)cc1 | –
6 | 643 | O=c1oc2ccccc2c(O)c1Cc1ccc(Br)cc1 | –
7 | 79000 | CC(C)=CCc1c(O)c2ccccc2oc1=O [ISOPRENYLCOUMARIN] | –
8 | 873 | O=c1oc2ccccc2c(O)c1Cc1ccc2c(c1)OCO2 | –

Second part, the compound before the results:

Row | SMILES | IC50 [1] [nM] | half-life [2] [days]
9 | O=c1oc2ccccc2c(O)c1C1CC(c2ccc(OCc3ccc(C(F)(F)F)cc3)cc2)Cc2ccccc21 (stereo not given) | – | 215
10 | O=c1oc2ccccc2c(O)c1C(CC(O)c1ccc(-c2ccc(Br)cc2)cc1)c1ccccc1 (stereo not given) [BROMODIOLONE] | – | 170
11 | O=c1oc2ccccc2c(O)c1C1CC(c2ccc(-c3ccccc3)cc2)Cc2ccccc21 (stereo not given) | – | 118
12 | CC(c1ccccc1)c1c(O)c2ccccc2oc1=O (stereo not given) | 1530 | –
13 | CC(O)CC(c1ccccc1)c1c(O)c2ccccc2oc1=O (stereo not given) [WARFARIN ALCOHOL] | 12500 | –
14 | O=c1oc2ccccc2c(O)c1C1CC(c2ccc(-c3ccc(Br)cc3)cc2)Cc2ccccc21 (stereo not given) [BRODIFACOUM] | 150 | –
15 | CC(C)=CCC/C(C)=C\CC/C(C)=C\Cc1c(O)c2ccccc2oc1=O | 98 | –
